We go through 21 compounds from US9701664B2, “Fused 1,4-dihydrodioxin derivatives as inhibitors of heat shock transcription factor 1” (Cancer Research Technology Limited, priority 2013, dated 2017).

The structures appear in SMILES notation. pIC50: −log10 of the molar value.

In one assay the test system is HSP72 in U2OS cells. As to the kind of experiment: Cell-based ELISA (Cellisa) assay, U2OS cells: inhibition of 17-AAG-induced HSP72. The conditions noted are these: Homo sapiens; U2OS cells (Examples 1-168). (An ELISA detects its analyte on a solid surface through an enzyme-linked reagent.)
A further assay concerns U2OS cells. The assay is described as follows: Titre Blue cell viability assay, U2OS cells. The assay is classed as cell-based. To be noted: Homo sapiens, U2OS.

For the compound `Cc1ccc(NC(=O)c2ccc3c(c2)OCCO3)cc1NC(=O)c1ccc(OCc2ccccn2)nc1` [Example 25, N-(5-(2,3-dihydrobenzo[b][1,4]dioxine-6-carboxamido)-2-methylphenyl)-6-(pyridin-2-ylmethoxy)nicotinamide], the pIC50 is 5.79 in the assay with HSP72 in U2OS cells and 5.95 with U2OS cells.

Take `CCC(=O)N(C)Cc1ccc2cc(C(=O)Nc3cc(NC(=O)c4ccc5c(c4)OCCO5)ccc3C)ccc2n1` [Example 78, N-(5-(2,3-dihydrobenzo[b][1,4]dioxine-6-carboxamido)-2-methylphenyl)-2-((N-methylpropionamido)methyl)quinoline-6-carboxamide]: the pIC50 in the assay with HSP72 in U2OS cells is 7.35; in the assay on U2OS cells it was 7.04.

For `Cc1ccc(NC(=O)c2ccc3c(c2)OCCO3)cc1NC(=O)c1ccc2nccnc2c1` [Example 36, N-(5-(2,3-dihydrobenzo[b][1,4]dioxine-6-carboxamido)-2-methylphenyl)quinoxaline-6-carboxamide], the pIC50 in the assay on HSP72 in U2OS cells was 5.94; in the assay with U2OS cells it was 6.25.

Regarding `Cc1ccc(NC(=O)c2ccc3c(c2)OCCO3)cc1NC(=O)c1cnc2[nH]cnc2c1` [Example 92, N-(5-(2,3-dihydrobenzo[b][1,4]dioxine-6-carboxamido)-2-methylphenyl)-3H-imidazo[4,5-b]pyridine-6-carboxamide], the pIC50 in the assay with HSP72 in U2OS cells is 5.36; in the assay with U2OS cells, 5.48.

With `Cc1ccc(NC(=O)c2ccc3c(c2)OCCO3)cc1NC(=O)c1ccc2nc(N)sc2c1` [Example 91, 2-amino-N-(5-(2,3-dihydrobenzo[b][1,4]dioxine-6-carboxamido)-2-methylphenyl)benzo[d]thiazole-6-carboxamide], the negative-log IC50 (pIC50) in the assay with HSP72 in U2OS cells was 7.15; in the assay with U2OS cells, 6.94.

Consider `Cc1ccc(NC(=O)c2ccc3c(c2)OCCO3)cc1NC(=O)c1ccc2c(c1)CCN2C` [Example 7, N-(5-(2,3-dihydrobenzo[b][1,4]dioxine-6-carboxamido)-2-methylphenyl)-1-methylindoline-5-carboxamide], for which the values for the pIC50 in the assay with HSP72 in U2OS cells and with U2OS cells were 7.26 and 7.43, respectively.

As for `CCc1ccc(NC(=O)c2ccc3c(c2)OCCO3)cc1NC(=O)c1ccc2ncccc2c1` [Example 133, N-(5-(2,3-dihydrobenzo[b][1,4]dioxine-6-carboxamido)-2-ethylphenyl)quinoline-6-carboxamide], the results for the pIC50 with HSP72 in U2OS cells and with U2OS cells were 6.90 and 6.95, respectively.

As for `Cc1ccc(NC(=O)c2ccc3c(c2)OCCO3)cc1NC(=O)c1ccc2c(c1)CCC(=O)N2` [Example 103, N-(5-(2,3-dihydrobenzo[b][1,4]dioxine-6-carboxamido)-2-methylphenyl)-2-oxo-1,2,3,4-tetrahydroquinoline-6-carboxamide], the pIC50 in the assay with HSP72 in U2OS cells was 7.22; in the assay with U2OS cells, 7.13.

As for `Cc1ccc(NC(=O)c2ccc3c(c2)OCCO3)cc1NC(=O)c1ccc2nc(OC[C@@H]3CCCN3C)ccc2c1` [Example 53, (S)—N-(5-(2,3-dihydrobenzo[b][1,4]dioxine-6-carboxamido)-2-methylphenyl)-2-((1-methylpyrrolidin-2-yl)methoxy)quinoline-6-carboxamide], the pIC50 in the assay on HSP72 in U2OS cells and in the assay with U2OS cells was 8.15 in each case.

For `Cc1ccc(NC(=O)c2ccc3c(c2)OCCO3)cc1NC(=O)c1ccc2nc(OCCN3CCC(F)(F)CC3)ccc2c1` [Example 72, 2-(2-(4,4-difluoropiperidin-1-yl)ethoxy)-N-(5-(2,3-dihydrobenzo[b][1,4]dioxine-6-carboxamido)-2-methylphenyl)quinoline-6-carboxamide], the pIC50 with HSP72 in U2OS cells is 6.98; in the assay with U2OS cells, 7.22.

For the compound `Cc1ccc(NC(=O)c2ccc3c(c2)OCCO3)cc1NC(=O)c1ccc2c(c1)CCCN2C` [Example 143, N-(5-(2,3-dihydrobenzo[b][1,4]dioxine-6-carboxamido)-2-methylphenyl)-1-methyl-1,2,3,4-tetrahydroquinoline-6-carboxamide], the values for the pIC50 with HSP72 in U2OS cells and with U2OS cells were 7.26 and 7.59, respectively.

Regarding `O=C(Nc1ccc(Br)c(NC(=O)c2ccc3nc(OCCN4CCCC4)ccc3c2)c1)c1ccc2c(c1)OCCO2` [Example 139, N-(2-bromo-5-(2,3-dihydrobenzo[b][1,4]dioxine-6-carboxamido)phenyl)-2-(2-(pyrrolidin-1-yl)ethoxy)quinoline-6-carboxamide], the pIC50 with HSP72 in U2OS cells was 7.70; with U2OS cells, 7.64.

As to `Cc1ccc(NC(=O)c2ccc3c(c2)OCCO3)cc1NC(=O)c1cnc2c(c1)CCCC2` [Example 141, N-(5-(2,3-dihydrobenzo[b][1,4]dioxine-6-carboxamido)-2-methylphenyl)-5,6,7,8-tetrahydroquinoline-3-carboxamide], the negative logarithm of the IC50 (pIC50) is 7.49 with HSP72 in U2OS cells and 7.36 in the assay on U2OS cells.

Regarding `Cc1ccc(NC(=O)c2ccc3c(c2)OCCO3)cc1NC(=O)c1ccc2nc(OCCCN3CCOCC3)ccc2c1` [Example 55, N-(5-(2,3-dihydrobenzo[b][1,4]dioxine-6-carboxamido)-2-methylphenyl)-2-(3-morpholinopropoxy)quinoline-6-carboxamide], the pIC50 in the assay with HSP72 in U2OS cells is 7.89; in the assay on U2OS cells it was 7.70.

With `Cc1ccc(NC(=O)c2ccc3c(c2)OCCO3)cc1NC(=O)c1ccc2nc(COC(C)C)ccc2c1` [Example 145, N-(5-(2,3-dihydrobenzo[b][1,4]dioxine-6-carboxamido)-2-methylphenyl)-2-(isopropoxymethyl)quinoline-6-carboxamide], the pIC50 in the assay on HSP72 in U2OS cells was 7.19; with U2OS cells, 7.77.

Consider `Cc1ccc(NC(=O)c2ccc3c(c2)OCCO3)cc1NC(=O)c1ccc(-n2cccn2)cc1` [Example 107, N-(3-(4-(1H-pyrazol-1-yl)benzamido)-4-methylphenyl)-2,3-dihydrobenzo[b][1,4]dioxine-6-carboxamide], for which the figures for the pIC50 with HSP72 in U2OS cells and in the assay with U2OS cells were 6.53 and 6.64, respectively.

For `Cc1ccc(NC(=O)c2ccc3c(c2)OCCO3)cc1NC(=O)c1ccc2nc(CCN3CCOCC3)ccc2c1` [Example 144, N-(5-(2,3-dihydrobenzo[b][1,4]dioxine-6-carboxamido)-2-methylphenyl)-2-(2-morpholinoethyl)quinoline-6-carboxamide], the pIC50 in the assay with HSP72 in U2OS cells was 7.22; with U2OS cells it was 7.10.

Consider `Cc1ccc(NC(=O)c2ccc3c(c2)OCCO3)cc1NC(=O)c1ccc2nc(CCN3CCCC3)ccc2c1` [Example 59, N-(5-(2,3-dihydrobenzo[b][1,4]dioxine-6-carboxamido)-2-methylphenyl)-2-(2-(pyrrolidin-1-yl)ethyl)quinoline-6-carboxamide], for which the pIC50 was 7.82 in the assay with HSP72 in U2OS cells and 6.39 in the assay with U2OS cells.

With `N#Cc1ccc(NC(=O)c2ccc3c(c2)OCCO3)cc1NC(=O)c1ccc2ncccc2c1` [Example 140, N-(2-cyano-5-(2,3-dihydrobenzo[b][1,4]dioxine-6-carboxamido)phenyl)quinoline-6-carboxamide], the pIC50 in the assay on HSP72 in U2OS cells was 7.51; in the assay with U2OS cells, 7.47.

Take `Cc1ccc(NC(=O)c2ccc3c(c2)OCCO3)cc1NC(=O)c1ccc2c(c1)COC2=O` [Example 8, N-(4-methyl-3-(1-oxo-1,3-dihydroisobenzofuran-5-carboxamido)phenyl)-2,3-dihydrobenzo[b][1,4]dioxine-6-carboxamide]: the pIC50 in the assay on HSP72 in U2OS cells is 6.69; in the assay on U2OS cells, 6.97.

`Cc1ccc(NC(=O)c2ccc3c(c2)OCCO3)cc1NC(=O)c1cnc2ccccc2c1` [Example 47, N-(5-(2,3-dihydrobenzo[b][1,4]dioxine-6-carboxamido)-2-methylphenyl)quinoline-3-carboxamide]: the values for the pIC50 in the assay on HSP72 in U2OS cells and in the assay with U2OS cells were 8.40 and 7.92, respectively.

A word on the pIC50: it is the IC50 on a negative log10 scale, so that one unit is a factor of ten. Lower therefore signals a large IC50.
